One may read the IC50 as the point on the concentration scale where inhibition reaches its midpoint. A low value points to inhibition by little substance. What is called EC50 is the concentration that produces a half-maximal response.

For series [1], the system named is Beagle dogs. The series is described as follows: Ocular surface hyperemia in dogs. It counts as in vivo. The conditions noted are these: dog, topical, Conc. 0.1%; score: trace 0.5, mild 1, moderate 2, severe 3. How it is done: (§1) • Intraocular Pressure (IOP) Intraocular pressure studies in dogs involved pneumatonometry performed in conscious, Beagle dogs of both sexes (10–15 kg). The animals remained conscious throughout the study and were gently restrained by hand. Drugs were administered topically to one eye as a 25 μL volume drop, the other eye received 25 μL vehicle (0.1% polysorbate 80:10 mM TRIS) as a control. Proparacaine (0.1%) was used for corneal anesthesia during tonometry. Intraocular pressure was determined just before drug administration and at 2, 4 and 6 hr thereafter on each day of the 5 day study. Drug was administered immediately after the first IOP reading. • An analogous procedure was carried out with cynomolgus monkeys with measurements at 2, 4, 6, and 24 hours after a single dose. • Pupil Diameter • Dog pupil diameter was measured using an optistick (a mm ruler which included half-circle references of standard widths (mm) for reference. Gently restraining the dog by hand, pupil diameter was determined by matching a half-circle to the pupil in normal room light. In dogs with very dark pupils a specialized penlight was used, but only very briefly to avoid pupil constriction. Pupil diameter was measured at the same time as IOP and hyperemia. • Ocular Surface Hyperemia • Ocular surface hyperemia was visually assessed and scored according to a system typically used clinically.
• Ocular surface hyperemia was evaluated at the same time points as intraocular pressure measurement. It should be noted that untreated dog eyes frequently have a pink/red tone. Thus, values of trace or even mild are not necessarily out of the normal range.

The target in a further series is T1, HEP4 (Homo sapiens, UniProt P35408).
T1 construct: expressed in transfected cells; host or cells: HEK-293
T1 sequence (P35408 whole entry): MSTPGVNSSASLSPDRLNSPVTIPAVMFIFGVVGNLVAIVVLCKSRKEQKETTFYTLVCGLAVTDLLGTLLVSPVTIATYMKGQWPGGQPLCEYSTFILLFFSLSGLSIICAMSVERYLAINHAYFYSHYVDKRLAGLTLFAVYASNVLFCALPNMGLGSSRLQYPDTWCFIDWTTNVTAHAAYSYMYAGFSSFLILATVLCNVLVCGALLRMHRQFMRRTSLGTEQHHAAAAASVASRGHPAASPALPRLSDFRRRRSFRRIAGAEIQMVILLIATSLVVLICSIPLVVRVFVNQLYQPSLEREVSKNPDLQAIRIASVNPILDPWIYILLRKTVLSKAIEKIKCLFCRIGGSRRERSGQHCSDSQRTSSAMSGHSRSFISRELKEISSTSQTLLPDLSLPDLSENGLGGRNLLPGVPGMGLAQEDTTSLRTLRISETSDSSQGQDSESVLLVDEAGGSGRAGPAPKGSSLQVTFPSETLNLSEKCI
The series can be described thus: Radioligand binding, EP4 receptor. The conditions noted are these: [3H]PGE2 5 nM, HEK-293 membranes. The gist of the method:
(§2)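 Membranes from HEK-293 cells stably expressing human EP receptors, in TME buffer pH 7.4. Competition against 5 nM [3H]PGE2, 60 min at 25 °C, duplicate, at least three experiments; GF/B filtration. Non-specific binding with 10^−5 M unlabeled PGE2.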

The target in the next series is T2, hEP4/Gqs5 (Homo sapiens, UniProt P35408).
T2 construct: expressed in transfected cells; host or cells: HEK-293 (EBNA)
T2 sequence (P35408 whole entry): as above
The series is described as follows: FLIPR calcium signal, hEP4/Gqs5. Type of series: cell-based. The conditions noted are these: HEK-293 (EBNA) cells, read-out: FUNCTIONAL EC50 HEP4. The gist of the method:
(§3)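 HEK-293 (EBNA) cells stably expressing the recombinant human receptor (chimeric Gqs5 where indicated), Fluo-4 AM (2 μM) loaded 45 min, assayed in HBSS-HEPES pH 7.4 at 37 °C. Peak fluorescence (488 nm excitation) expressed relative to buffer and standard agonist controls; compounds tested at 10^−5 M or 10^−5–10^−11 M in duplicate, n≥3 plates.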

In a further series the test system is cynomolgus monkeys. The series can be described thus: Intraocular pressure in cynomolgus monkeys. It counts as in vivo. The conditions noted are these: monkey, topical single dose, Conc. 0.1%. As for the experimental part: as §1
The test system of series [2] is Beagle dogs. The series can be described thus: Intraocular pressure in dogs (pneumatonometry). Type of series: in vivo. The conditions noted are these: dog, topical 25 μL drop, Conc. 0.1%, 5 day study. How it is done:
as §1

In another series the target is T3, HEP3D (Homo sapiens, UniProt P43115).
T3 sequence (P43115 1-374 isoform P43115-4): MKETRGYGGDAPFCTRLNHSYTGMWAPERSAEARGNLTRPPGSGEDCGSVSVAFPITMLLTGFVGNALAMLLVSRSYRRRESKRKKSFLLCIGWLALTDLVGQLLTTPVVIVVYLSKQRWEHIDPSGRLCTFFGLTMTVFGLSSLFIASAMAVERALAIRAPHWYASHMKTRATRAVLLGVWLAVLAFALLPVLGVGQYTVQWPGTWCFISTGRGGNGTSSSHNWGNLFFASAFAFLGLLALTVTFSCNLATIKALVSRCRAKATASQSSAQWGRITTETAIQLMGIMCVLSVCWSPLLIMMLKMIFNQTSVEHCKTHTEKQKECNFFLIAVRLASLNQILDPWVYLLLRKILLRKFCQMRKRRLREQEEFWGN
The series is described as follows: Radioligand binding, EP3 receptor. The conditions noted are these: [3H]PGE2 5 nM. The essentials:
as §2

The target in another series is T4, hEP1 (Homo sapiens, UniProt P34995).
T4 construct: expressed in transfected cells; host or cells: HEK-293 (EBNA)
T4 sequence (P34995 1-402): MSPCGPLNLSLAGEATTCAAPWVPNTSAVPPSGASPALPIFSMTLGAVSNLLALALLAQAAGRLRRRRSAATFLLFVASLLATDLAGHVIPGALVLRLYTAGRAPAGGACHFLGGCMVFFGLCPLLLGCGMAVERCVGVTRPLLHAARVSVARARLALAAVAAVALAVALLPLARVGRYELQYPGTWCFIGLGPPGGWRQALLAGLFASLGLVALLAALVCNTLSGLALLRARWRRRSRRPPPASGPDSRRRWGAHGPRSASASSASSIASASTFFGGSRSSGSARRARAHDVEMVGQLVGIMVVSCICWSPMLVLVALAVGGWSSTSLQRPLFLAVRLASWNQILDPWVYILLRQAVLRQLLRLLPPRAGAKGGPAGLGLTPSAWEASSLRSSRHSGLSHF
The series can be described thus: FLIPR calcium signal, hEP1. Type of series: cell-based. The conditions noted are these: HEK-293 (EBNA) cells, read-out: FUNCTIONAL EC50 HEP1. As for the experimental part: (§4) HEK-293 (EBNA) cells, stably expressing one type or subtype of recombinant human prostaglandin receptors (prostaglandin receptors expressed: hDP/Gqs5; hEP1; hEP2/Gqs5; hEP3A/Gqi5; hEP4/Gqs5; hFP; hIP; hTP), were cultured in 100 mm culture dishes in high-glucose DMEM medium containing 10% fetal bovine serum, 2 mM 1-glutamine, 250 μg/ml geneticin (G418) and 200 μg/ml hygromycin B as selection markers, and 100 units/ml penicillin G, 100 μg/ml streptomycin and 0.25 μg/ml amphotericin B. • (b) Calcium Signal Studies on the FLIPR™
(§5) Cells were seeded at a density of 5×10^4 cells per well in Biocoat® Poly-D-lysine-coated black-wall, clear-bottom 96-well plates (Becton-Dickinson) and allowed to attach overnight in an incubator at 37° C. Cells were then washed two times with HBSS-HEPES buffer (Hanks Balanced Salt Solution without bicarbonate and phenol red, 20 mM HEPES, pH 7.4) using a Denley Cellwash plate washer (Labsystems). […]
(§6) Cells were excited with an Argon laser at 488 nm, and emission was measured through a 510–570 nm bandwidth emission filter (FLIPR™, Molecular Devices, Sunnyvale, Calif.). […] The peak increase in fluorescence intensity was recorded for each well. […] The peak fluorescence change in each drug-containing well was then expressed relative to the controls. […]

In a further series the target is T5, hEP3A/Gqi5 (Homo sapiens, UniProt P43115).
T5 construct: expressed in transfected cells; host or cells: HEK-293 (EBNA)
T5 sequence (P43115 1-390): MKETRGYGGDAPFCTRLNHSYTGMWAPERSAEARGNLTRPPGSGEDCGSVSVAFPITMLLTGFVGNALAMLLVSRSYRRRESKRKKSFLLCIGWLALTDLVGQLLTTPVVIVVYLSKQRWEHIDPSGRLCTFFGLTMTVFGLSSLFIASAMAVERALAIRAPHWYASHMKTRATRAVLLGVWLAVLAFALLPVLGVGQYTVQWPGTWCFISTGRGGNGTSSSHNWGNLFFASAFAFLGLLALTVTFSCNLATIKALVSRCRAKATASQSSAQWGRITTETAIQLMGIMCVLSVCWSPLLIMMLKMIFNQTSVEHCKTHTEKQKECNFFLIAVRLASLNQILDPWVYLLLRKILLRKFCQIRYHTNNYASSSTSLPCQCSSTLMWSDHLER
The series can be described thus: FLIPR calcium signal, hEP3A/Gqi5. The conditions noted are these: HEK-293 (EBNA) cells, read-out: FUNCTIONAL EC50 HEP3A. Type of series: cell-based. The gist of the method: as §3

In another series the target is T6, hEP2/Gqs5 (Homo sapiens, UniProt P43116).
T6 construct: expressed in transfected cells; host or cells: HEK-293 (EBNA)
T6 sequence (P43116 whole entry): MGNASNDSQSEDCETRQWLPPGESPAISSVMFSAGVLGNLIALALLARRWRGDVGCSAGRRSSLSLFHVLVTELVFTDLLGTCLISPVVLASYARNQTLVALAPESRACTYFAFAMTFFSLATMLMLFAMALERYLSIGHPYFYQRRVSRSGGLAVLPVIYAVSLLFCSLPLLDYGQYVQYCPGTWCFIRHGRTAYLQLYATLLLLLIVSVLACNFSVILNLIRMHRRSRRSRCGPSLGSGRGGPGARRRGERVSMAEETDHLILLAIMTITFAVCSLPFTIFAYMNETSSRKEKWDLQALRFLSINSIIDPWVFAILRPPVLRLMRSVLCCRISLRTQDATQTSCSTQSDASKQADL
The series is described as follows: FLIPR calcium signal, hEP2/Gqs5. Type of series: cell-based. The conditions noted are these: HEK-293 (EBNA) cells, read-out: FUNCTIONAL EC50 HEP2. As for the experimental part:
as §4
Cells were seeded at a density of 5×10^4 cells per well in Biocoat® Poly-D-lysine-coated black-wall, clear-bottom 96-well plates (Becton-Dickinson) and allowed to attach overnight in an incubator at 37° C. Cells were then washed two times with HBSS-HEPES buffer (Hanks Balanced Salt Solution without bicarbonate and phenol red, 20 mM HEPES, pH 7.4) using a Denley Cellwash plate washer (Labsystems). After 45 minutes of dye-loading in the dark, using the calcium-sensitive dye Fluo-4 AM at a final concentration of 2 μM, plates were washed four times with HBSS-HEPES buffer to remove excess dye leaving 100 μl in each well. Plates were re-equilibrated to 37° C. for a few minutes.
Cells were excited with an Argon laser at 488 nm, and emission was measured through a 510–570 nm bandwidth emission filter (FLIPR™, Molecular Devices, Sunnyvale, Calif.). Drug solution was added in a 50 μl volume to each well to give the desired final concentration. The peak increase in fluorescence intensity was recorded for each well. On each plate, four wells each served as negative (HBSS-HEPES buffer) and positive controls (standard agonists: BW245C (hDP); PGE2 (hEP1; hEP2/Gqs5; hEP3A/Gqi5; hEP4/Gqs5); PGF2α (hFP); carbacyclin (hIP); U46619 (hTP), depending on receptor). The peak fluorescence change in each drug-containing well was then expressed relative to the controls.
Compounds were tested in a high-throughput (HTS) or concentration-response (CoRe) format. […]

In another series the target is T7, HEP2 (Homo sapiens, UniProt P43116).
T7 construct: expressed in transfected cells; host or cells: HEK-293
T7 sequence (P43116 whole entry): as above
The series is described as follows: Radioligand binding, EP2 receptor. The conditions noted are these: [3H]PGE2 5 nM, HEK-293 membranes. As for the experimental part:
HEK-293 cells stably expressing the human or feline FP receptor, or EP1, EP2, or EP4 receptors were washed with TME buffer, scraped from the bottom of the flasks, and homogenized for 30 sec using a Brinkman PT 10/35 polytron. TME buffer was added to achieve a final 40 ml volume in the centrifuge tubes (the composition of TME is 100 mM TRIS base, 20 mM MgCl2, […]; 10N HCl is added to achieve a pH of 7.4).
The cell homogenate was centrifuged at 19000 r.p.m. for 20 min at 4° C. using a Beckman Ti-60 rotor. The resultant pellet was resuspended in TME buffer to give a final 1 mg/ml protein concentration, as determined by Biorad assay. Radioligand binding competition assays vs. [^3H-]17-phenyl PGF2α (5 nM) were performed in a 100 μl volume for 60 min. Binding reactions were started by adding plasma membrane fraction. The reaction was terminated by the addition of 4 ml ice-cold TRIS-HCl buffer and rapid filtration through glass fiber GF/B filters using a Brandel cell harvester. The filters were washed 3 times with ice-cold buffer and oven dried for one hour. Non-specific binding was determined with 10 uM unlabeled 17-phenyl PGF2α.
[^3H-] PGE2 (5 nM; specific activity 180 Ci mmol) was used as the radioligand for EP receptors. Binding studies employing EP1, EP2, EP3, EP4 were performed in duplicate in at least three separate experiments. A 200 μl assay volume was used. Incubations were for 60 min at 25° C. and were terminated by the addition of 4 ml of ice-cold 50 mM TRIS-HCl, followed by rapid filtration through Whatman GF/B filters and three additional 4 ml washes in a cell harvester (Brandel). Non-specific binding determined with 10^−5M of unlabeled PGE2.

The target in another series is T8, hDP/Gqs5 (Homo sapiens, UniProt Q13258).
T8 construct: expressed in transfected cells; host or cells: HEK-293 (EBNA)
T8 sequence (Q13258 1-359): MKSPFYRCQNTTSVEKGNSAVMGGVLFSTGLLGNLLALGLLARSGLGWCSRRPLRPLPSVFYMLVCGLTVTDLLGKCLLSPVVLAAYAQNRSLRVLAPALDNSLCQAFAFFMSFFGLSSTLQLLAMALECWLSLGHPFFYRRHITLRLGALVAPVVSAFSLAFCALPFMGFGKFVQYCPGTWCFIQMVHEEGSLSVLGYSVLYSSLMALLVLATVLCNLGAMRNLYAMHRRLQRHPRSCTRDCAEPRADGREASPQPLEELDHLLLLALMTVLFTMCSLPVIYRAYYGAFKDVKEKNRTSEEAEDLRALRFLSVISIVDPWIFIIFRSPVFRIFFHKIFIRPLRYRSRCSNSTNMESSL
The series can be described thus: FLIPR calcium signal, hDP/Gqs5. Type of series: cell-based. The conditions noted are these: HEK-293 (EBNA) cells, read-out: FUNCTIONAL EC50 HDP. As for the experimental part:
as §4, §5, §6

In the series on Beagle dogs [1], `O=C(O)CSCCCS[C@H]1C(=O)C[C@@H](CO)[C@@H]1/C=C/C(O)Cc1ccccc1` (single isomer, unassigned) [Compound 151] yielded a Max hyperemia of 1.6. Besides, the IC50 is 53 nM on HEP4 and greater than 10000 nM on HEP3D. Moreover, the EC50 at hEP4/Gqs5 amounted to 59 nM. The “Max. ΔIOP” value was −2.9 mm Hg in the series with cynomolgus monkeys and −4.0 mm Hg with Beagle dogs [2].
Regarding `CCCCC[C@H](O)/C=C/[C@H]1CCC(=O)[C@@H]1SCCCSCC(=O)O` [{3-[(1R,2R)-2-((E)-(S)-3-Hydroxy-oct-1-enyl)-5-oxo-cyclopentylsulfanyl]-propylsulfanyl}-acetic acid], the EC50 on hEP1 is greater than 10000 nM; at hEP3A/Gqi5, 16 nM; at hEP2/Gqs5, 1220 nM; on hEP4/Gqs5, 1.6 nM; at hDP/Gqs5, greater than 10000 nM. The IC50 came out at 20 nM at HEP4 and 2200 nM at HEP2.

These data come from US7183324B2, “2,3,4-substituted cyclopentanones as therapeutic agents” (Allergan, Inc., priority 2004, dated 2007).
